{
  "source": "patent US10344048B2",
  "about": "“Certain chemical entities, compositions, and methods” (priority 2011, dated 2019)",
  "tested_on": "A549 cells",
  "assay": "Inhibition of cell growth in tumor cells, MTT assay",
  "format": "cell-based",
  "conditions": "Homo sapiens, read-out: A549 cell IC50",
  "method": "Inhibition of cell growth by compounds was measured using MTT assay (Mosmann, T., Journal of Immunological Methods, 1983, 65, 55-63). Tumor cell lines were purchased from ATCC (American Type Culture Collection, Manassas, Va.). All cell lines were maintained in RPMI 1640 (Hyclone) supplemented with 10% fetal bovine serum (FBS, Hyclone), glutamine (2 mM, Hyclone), and antibiotics (penicillin 100 U/mL and streptomycin 50 μg/mL) at 37° C. in a humidified atmosphere of 5% CO2 in air. Taxol (positive control, Sigma) and compounds were dissolved in DMSO (Sigma), and the final concentration of DMSO in the medium was 1%. Tumor cells were plated in 96-well plates at densities from 4000 cells/well of a 96-well plate and allowed to adhere/grow for 24 h. They were then treated with various concentrations of drug for 72 h. […] The number of cells remaining after 72 h was compared to the number of viable cells at the time of compound addition by measuring the absorbance at 570 nm, allowing for the calculation of growth inhibition.\nAll concentrations of compounds were tested in triplicate and controls were averaged over 4 wells. IC50 was calculated by plotting the concentration of compound vs the percentage of inhibition in treated wells using GraphPad Prism 5. […]",
  "note": "Read-outs that look alike come from different tables or passages of the source.",
  "data": [
    {"smiles": "CC(=O)O[C@H]1C[C@]2(O)[C@@H]3CC[C@@H]4C[C@@H](OC(=O)N5CCNCC5)CC[C@]4(C)[C@H]3CC[C@]2(C)[C@H]1c1ccc(=O)oc1", "note": "[(3S,5R,8R,9S,10S,13R,14S,16S,17R)-16-acetoxy-14-hydroxy-10,13-dimethyl-17-(2-oxo-2H-pyran-5-yl)hexadecahydro-1H-cyclopenta[a]phenanthren-3-yl piperazine-1-carboxylate]", "values": [
      {"measurement": "IC50", "setting": "A549, 72 h", "value": 5.6, "unit": "nM"}
    ]},
    {"smiles": "C[C@]12CC[C@H](OC(=O)N3CCNCC3)C[C@H]1CC[C@@H]1[C@@H]2CC[C@]2(C)[C@@H](C3=CC(=O)OC3)CC[C@]12O", "note": "[(3S,5R,8R,9S,10S,13R,14S,17R)-14-hydroxy-10,13-dimethyl-17-(5-oxo-2,5-dihydrofuran-3-yl)hexadecahydro-1H-cyclopenta[a]phenanthren-3-yl piperazine-1-carboxylate]", "values": [
      {"measurement": "IC50", "setting": "A549 cells, MTT assay, 72 h compound exposure", "value": 39, "unit": "nM"}
    ]}
  ]
}
